US20240390471A1, “COMPOUNDS AND ADJUVANT FORMULATIONS USEFUL IN PNEUMOCOCCAL VACCINES” (Merck Sharp & Dohme LLC, priority 2023, published 2024)

Assays:
[1] = test system: S. pneumoniae serotypes of PCV13; conditions: PCV13 plus 3M-052 compared to PCV13 alone; cited from earlier work
[2] = target: T1, human TLR7 (Homo sapiens, UniProt Q9NYK1); test: Cell-based TLR 7/8 assay, HEK-Blue TLR7 cells (SEAP reporter); conditions: based on Compound concentration only; Compounds formulated as SNEs; read-out: huTLR7 EC50 (converted)
T1 construct: host or cells: HEK-Blue 293 cells expressing human TLR7
T1 sequence (Q9NYK1 27-1049): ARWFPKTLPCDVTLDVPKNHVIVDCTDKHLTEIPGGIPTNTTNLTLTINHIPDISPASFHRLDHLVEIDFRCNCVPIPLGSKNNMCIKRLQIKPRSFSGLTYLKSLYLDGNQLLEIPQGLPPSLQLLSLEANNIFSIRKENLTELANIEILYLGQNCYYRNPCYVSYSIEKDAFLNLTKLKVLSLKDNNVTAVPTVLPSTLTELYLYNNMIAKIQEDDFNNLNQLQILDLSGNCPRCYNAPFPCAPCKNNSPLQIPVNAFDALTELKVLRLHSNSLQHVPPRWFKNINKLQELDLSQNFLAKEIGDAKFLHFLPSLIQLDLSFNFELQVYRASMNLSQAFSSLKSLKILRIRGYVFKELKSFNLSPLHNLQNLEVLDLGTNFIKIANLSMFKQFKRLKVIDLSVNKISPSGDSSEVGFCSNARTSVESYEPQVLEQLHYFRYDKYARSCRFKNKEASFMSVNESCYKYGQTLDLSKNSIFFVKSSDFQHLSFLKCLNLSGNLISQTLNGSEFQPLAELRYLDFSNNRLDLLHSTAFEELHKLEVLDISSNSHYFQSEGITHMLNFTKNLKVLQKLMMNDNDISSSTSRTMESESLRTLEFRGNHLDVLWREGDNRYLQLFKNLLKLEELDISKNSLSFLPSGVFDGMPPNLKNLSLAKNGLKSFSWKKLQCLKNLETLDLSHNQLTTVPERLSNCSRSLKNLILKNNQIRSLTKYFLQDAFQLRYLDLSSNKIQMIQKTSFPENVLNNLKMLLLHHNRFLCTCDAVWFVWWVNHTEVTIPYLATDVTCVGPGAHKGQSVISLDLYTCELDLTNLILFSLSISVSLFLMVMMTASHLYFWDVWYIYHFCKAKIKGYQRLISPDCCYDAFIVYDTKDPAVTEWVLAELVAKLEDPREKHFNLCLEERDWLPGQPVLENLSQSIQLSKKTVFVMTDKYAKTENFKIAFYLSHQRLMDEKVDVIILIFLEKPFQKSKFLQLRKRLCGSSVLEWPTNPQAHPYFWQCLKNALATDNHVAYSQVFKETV
Description: (§1) HEK-Blue™ TLR7 and TLR8 cells (InvivoGen) were designed to assess the stimulation of TLR7 and TLR8 by monitoring the activation of NF-κB and AP-1. Compound B-1-SNE samples were diluted 1:2 across an 8-point titration in diluent buffer histidine/PS-20 in a sterile V-bottom plate. 20 μL of samples were transferred to corresponding wells of two flat bottom assay plates. Media was aspirated from HEK-Blue™ human TLR 7 and TLR 8 cells (T-75 flasks) and gently rinsed with pre-warmed (37° C.) DPBS for a total volume of 5 mL/flask. The DPBS was gently removed from the cells and cells were gently manually dislodged and resuspended in 2 mL of DPBS. Cell assay suspensions were then prepared at approximately 2.2×10^5 cells per mL of HEK-Blue™ detection medium (InvivoGen). 180 μL of cell suspension in detection medium was added to each well of the two flat bottom assay plates containing the diluted Compound B-1-SNE samples for a final dilution of sample equaling 1:10 (180 μL of cell suspension in detection medium and 20 μL of sample). The cells were then incubated at 37° C. in 5% CO2 for 20 hrs. The reporter gene, NF-Kb, induces the production of secreted embryonic alkaline phosphatase (SEAP) when stimulated and can be monitored using the vendor supplied SEAP detection kit. SEAP colorimetric changes were read at an absorbance of 640 nm using a SpectroMax Stakmax plate reader. […] EC50 values were calculated based on total Compound B-1-SNE concentration using GraphPad Prism Software and analyzed using agonist vs. response variable slope (four parameters) least squares fit.
(§2) Further to the description in Example 10, a cell-based activation system was used to assess activity of the Compound-formulated nanoemulsion systems, prepared as described in examples, supra. HEK-Blue™ TLR7 and TLR8 cells (InvivoGen) were designed to assess the stimulation of TLR7 and TLR8 by monitoring the activation of NF-κB and AP-1. Compound-SNE samples were diluted 1:2 across an 8-point titration in diluent buffer histidine/PS-20 in a sterile V-bottom plate. 20 μL of samples were transferred to corresponding wells of two flat bottom assay plates. Media was aspirated from HEK-Blue™ human TLR 7 and TLR 8 cells (T-75 flasks) and gently rinsed with pre-warmed (37° C.) DPBS for a total volume of 5 mL/flask. The DPBS was gently removed from the cells and cells were gently manually dislodged and resuspended in 2 mL of DPBS. Cell assay suspensions were then prepared at approximately 2.2×10^5 cells per mL of HEK-Blue™ detection medium (InvivoGen). 180 μL of cell suspension in detection medium was added to each well of the two flat bottom assay plates containing the diluted Compound-SNE samples for a final dilution of sample equaling 1:10 (180 μL of cell suspension in detection medium and 20 μL of sample). The cells were then incubated at 37° C. in 5% CO2 for 20 hrs. The reporter gene, NF-Kb, induces the production of secreted embryonic alkaline phosphatase (SLAP) when stimulated and can be monitored using the vendor supplied SLAP detection kit. SLAP colorimetric changes were read at an absorbance of 640 nm using a SpectroMax Stakmax plate reader. EC50s were calculated based on Compound concentration only, not total Compound-SNE concentration (Table 6) using GraphPad Prism Software and analyzed using agonist vs. response variable slope (four parameters) least squares fit.

[3] = target: T2, human TLR8 (Homo sapiens, UniProt Q9NR97); test: Cell-based TLR 7/8 assay, HEK-Blue TLR8 cells (SEAP reporter); conditions: based on Compound concentration only; Compounds formulated as SNEs; read-out: huTLR8 EC50 (converted)
T2 construct: host or cells: HEK-Blue 293 cells expressing human TLR8
T2 sequence (Q9NR97 27-1041): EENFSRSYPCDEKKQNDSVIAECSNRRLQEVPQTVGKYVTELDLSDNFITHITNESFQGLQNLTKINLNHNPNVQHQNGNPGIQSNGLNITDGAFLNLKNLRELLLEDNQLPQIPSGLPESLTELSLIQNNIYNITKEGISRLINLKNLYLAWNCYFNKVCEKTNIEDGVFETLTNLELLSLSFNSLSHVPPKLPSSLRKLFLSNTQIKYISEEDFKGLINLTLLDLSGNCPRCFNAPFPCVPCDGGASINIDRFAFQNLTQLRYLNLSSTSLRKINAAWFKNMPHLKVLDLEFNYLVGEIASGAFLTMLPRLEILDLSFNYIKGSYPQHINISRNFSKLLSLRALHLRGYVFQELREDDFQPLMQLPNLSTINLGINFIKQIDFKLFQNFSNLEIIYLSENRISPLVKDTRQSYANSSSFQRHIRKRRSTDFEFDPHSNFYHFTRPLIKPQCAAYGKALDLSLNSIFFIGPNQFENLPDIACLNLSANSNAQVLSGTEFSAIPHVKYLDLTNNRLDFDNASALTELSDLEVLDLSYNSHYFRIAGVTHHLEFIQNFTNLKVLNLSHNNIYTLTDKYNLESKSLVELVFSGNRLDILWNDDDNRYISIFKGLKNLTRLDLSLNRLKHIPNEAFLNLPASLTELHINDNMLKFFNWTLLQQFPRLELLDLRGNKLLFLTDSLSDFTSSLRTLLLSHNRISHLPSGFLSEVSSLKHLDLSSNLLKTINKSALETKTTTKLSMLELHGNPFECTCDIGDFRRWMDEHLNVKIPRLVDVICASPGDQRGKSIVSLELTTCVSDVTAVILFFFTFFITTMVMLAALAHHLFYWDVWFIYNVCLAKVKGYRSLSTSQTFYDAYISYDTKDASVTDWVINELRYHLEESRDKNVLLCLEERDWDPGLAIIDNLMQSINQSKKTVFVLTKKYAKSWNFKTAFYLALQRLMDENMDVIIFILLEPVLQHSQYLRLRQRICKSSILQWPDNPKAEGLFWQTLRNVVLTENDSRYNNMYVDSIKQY
Description: as §1, §2

EC50 [2] [µM] | EC50 [3] [µM] | SMILES | serotype specific antibody responses (binding titers and opsonophagocytic killing) [1]
– | – | CCCCCCCCCCCCCCCCCC(=O)NCCCCOn1c(CCCC)nc2c(N)nc3ccccc3c21 [Compound 3M-052] | accelerated and enhanced serotype specific antibody responses
17.7 | 5.82 | CCCCCCCCCCCCCCCCCC(=O)NCCCNC(=O)N1CCN(c2ccc(Cn3cc4nc(N)nc(NCCCC)c4n3)c(OC)c2)CC1 [Compound D-2, 4-(4-((5-amino-7-(butylamino)-2H-pyrazolo[4,3-d]pyrimidin-2-yl)methyl)-3-methoxyphenyl)-N-(3-stearamidopropyl)piperazine-1-carboxamide] | –
23.7 | 13.8 | CCCCCCCCCCCCCCCCCC(=O)NCCCOC(=O)N1CCN(c2ccc(Cn3cc4nc(N)nc(NCCCC)c4n3)c(OC)c2)CC1 [Compound D-3, 3-stearamidopropyl 4-(4-((5-amino-7-(butylamino)-2H-pyrazolo[4,3-d]pyrimidin-2-yl)methyl)-3-methoxyphenyl)piperazine-1-carboxylate] | –
